Reference: article PMC6651038, “16-Hydroxy-Lycopersene, a Polyisoprenoid Alcohol Isolated from Tournefortia hirsutissima, Inhibits Nitric Oxide Production in RAW 264.7 Cells and Induces Apoptosis in Hep3B Cells” (Molecules, 2019)
Like-named read-outs stand apart in the source and are kept apart here.

Legend:
HeLa = assay: Antiproliferative MTS assay, HeLa; assay type: cell-based; conditions: Homo sapiens, 72 h
Method: (§1) PC3 (prostate), HeLa (cervical) and Hep3B and HepG2 (hepatocellular) human cancer cell lines were purchased from ATCC (Manassas, VA, USA). We also included immortalized human hepatocyte cell line (IHH) as a control of non-cancerous cells. PC3 was grown in RPMI-1640 medium (Sigma Aldrich, St. Louis, MO, USA), while Hep3B, HepG2, HeLa and IHH in DMEM medium (Invitrogen, Thermo Fisher Scientific, Waltham, MA, USA) supplemented with 10% SFB and 2 mM glutamine, all cultures were incubated at 37 °C in 5% CO2.
(§2) Cells (4 × 10^3 cells/well) were seeding in 96-well plates. The cells were treated with the investigated samples (at 0.01, 0.1, 1, 10 and 100 µg/mL) and incubated at 37 °C in 5% CO2 for 72 h. PTX was used as positive control. The number of viable cells in proliferation was checked by MTS assay, following the manufacturer’s instructions. The absorbance was measured at 450 nm using an automated ELISA reader (Promega, Madison, WI, USA).

Hep3B cells [1] = assay: Annexin V-FITC/PI staining, flow cytometry; assay type: cell-based, human; conditions: Compound 1 21.3 µM, PTX 20 nM, 72 h
Method: Apoptosis was evaluated using Annexin V Apoptosis Detection Kit FITC (Thermo Fisher Scientific, CA, USA). Hep3B cells (2.5 × 10^5 cells) were treated with 1 (21.31 µM). PTX (20 nM) was used as positive control of apoptosis. After 72 h, the cells were harvested and washed twice with ice-cold PBS (0.01 M, pH 7.2). After 5 min of centrifuging at 200 g. Annexin V-FITC/PI staining were performed according to manufacturer’s instruction. Cell apoptosis was analyzed on flow cytometer (10,000 cells for each sample). Data obtained from the flow cytometer were analyzed using the FlowJo Software.

[2] = tested on: immortalized human hepatocyte cell line (IHH); assay: Antiproliferative MTS assay, IHH non-cancerous cells; assay type: cell-based; conditions: 72 h
Method: as §1, §2

caspase 3/7 = assay: Caspase-Glo 3/7 assay in Hep3B cells; assay type: cell-based, human; conditions: 21.3 µM (12 µg/mL), 72 h
Method: Hep3B cells (8 × 10^3 cells per well) were plated on 96-well plates and treated with 1 at 21.31 µM for 72 h. After treatment, the caspase 3/7 activity was determined using the luminescent Caspase-Glo® 3/7 Assay (Promega, Madison, WI, USA) following the manufacturer’s instructions. The results were represented as relative units of luminescence.

Bax = assay: RT-PCR, Bax mRNA in Hep3B cells; assay type: cell-based, human; conditions: 21.3 µM, 72 h, vs non-treated control
Method: (§3) RNA was quantified using NanoDrop ND-1000 (Thermo Scientific, Waltham, MA, USA) and the RNA content was normalized. The RT-PCR was performed using a One-Step RT-PCR Kit with Thermo-Start Taq (Thermo Scientific, Waltham, MA, USA) following the manufacturer's instructions. PCR was performed with the following primers sequences: Bcl-2 ([NT]), Bax ([NT] ([NT]). Sequencing was performed at the Instituto de Biotecnología of Universidad Nacional Autónoma de México.

HepG2 = assay: Antiproliferative MTS assay, HepG2; assay type: cell-based; conditions: Homo sapiens, 72 h
Method: as §1, §2

PC3 = assay: Antiproliferative MTS assay, PC3; assay type: cell-based; conditions: Homo sapiens, PC-3, 72 h
Method: as §1, §2

RAW 264.7 cells = assay: Cell viability of RAW 264.7 cells (MTS); assay type: cell-based, murine; conditions: at 30 and 60 µg/mL
Method: (§4) RAW 264.7 cells (murine macrophage cell line) were purchased from ATCC (Georgetown, Washington, DC, USA ) and cultured in Advanced DMEM/F12 medium (Gibco, Waltham, MA USA) supplemented with 1% GlutaMAX (Gibco) and 3.5% inactivated FBS (Gibco), without antibiotics at 37 °C in 5% CO2.
The cell viability was determined by using MTS from Promega. The cells (1 × 10^4 cells per well) were seeding in 96-well plates in 100 µL of medium and were incubated for 24 h. Then, the cells were treated with various concentrations of the investigated samples, positive control (etoposide, 30 µg/mL) or vehicle (0.4% DMSO in culture medium) and incubated for 24 h. Subsequently, 20 µL of MTS was added at 20 h of treatment for 4 h, after that, the absorbance at 490 nm was measured using a microplate reader (Biotek, Winooski, VT, USA). The absorbance of control cells (untreated) was taken as 100% viability. The concentration of DMSO together with the treatments, in the culture medium was ≤ 0.4%, v/v.

Hep3B cells [3] = assay: Cell cycle analysis by flow cytometry, Hep3B; assay type: cell-based, human; conditions: treatment at IC50, 72 h, control 0.0%
Method: (§5) PC3, Hep3B, HepG2 and HeLa cells (1.25 × 10^5 cells/well) were seed in 6-well plates and allowed to attach overnight at 37 °C in 5% CO2. Exponential growing cells were treated with Compound 1 to the IC50 values for 72 h. PTX (10 nM) was included as a positive control of the G2/M phase arrest. Cells from each treatment were trypsinized and collected into single cell suspensions, centrifuged, and fixed in cold ethanol (70%) overnight at −20 °C. The cells were then treated with 0.01 M RNase (Sigma Aldrich, St. Louis, MO, USA) and stained with 7.5 µg/mL PI (Invitrogen) for 30 min in the dark. The percentage of cells in sub-G1, G1, S, and G2/M phases was analyzed with a flow cytometer (Becton Dickinson, FACS Calibur; Beckman Coulter, Inc., Brea, CA, USA) using 10,000 cells for each sample. Data obtained from the flow cytometer were analyzed using the FlowJo Software (Tree Star, Inc., Ashland, OR, USA).

[4] = tested on: nitric oxide (NO) production in LPS-stimulated RAW 264.7 cells; assay: NO (nitrite, Griess) production in LPS-stimulated RAW 264.7 cells; assay type: cell-based, murine; conditions: for inhibitory activity on NO production: highest evaluated concentration (60 µg/mL)
Method: as §4
RAW 264.7 cells were seeding (2 × 10^4 cells in 200 µL) and incubated for 24 h, then, were treated with various concentrations of the investigated samples, indomethacin (30 µg/mL) or DMSO (0.4%, v/v) for 2 h followed by stimulation with 1 µg/mL of LPS (from E. coli purchased from Sigma Aldrich, St. Louis, MO, USA) for 21 h. The nitrite is a stable metabolite of the NO and its concentration was calculated with Griess reagent and the aid of a standard curve of NaNO2. Cell-free supernatants (50 µL) were collected and incubated for 10 min with the Griess reagent (50 µL of 0.1% N-(1-napthyl)-ethylenediamine dihydrochloride and 50 µL of 1% sulphanilamide both in 2.5% phosphoric acid) at room temperature and absorbance at 540 nm was measured using a microplate reader.

Hep3B = assay: Antiproliferative MTS assay, Hep3B; assay type: cell-based; conditions: Homo sapiens, 72 h
Method: as §1, §2

Hep3B cells [5] = assay: Cell morphology, acridine orange/ethidium bromide staining; assay type: cell-based, human; conditions: 21.3 µM (12 µg/mL), 72 h
Method: The morphological changes of Hep3B cells exposed to Compound 1 were evaluated using acridine orange (AO) and ethidium bromide (EB) staining. In brief, Hep3B cells (2 × 10^4 cells per well) were seeding in 24-well plates and exposed with Compound 1 at 21.31 µM for 72 h. After 72 h of treatment cells were exposed to a solution of 100 µg/mL AO and 100 µg/mL EB, according to reported procedures. For controls, the cells were grown 71 h before being treated 30 min with H2O2 (positive control of apoptosis) or being boiling in water at 95 °C for 10 s (positive control of necrosis). Then, the cells were observed using a fluorescence microscope.

HepG2 cells = assay: Cell cycle analysis by flow cytometry, HepG2; assay type: cell-based, human; conditions: HepG2, treatment at IC50, 72 h; control 1.5%
Method: as §5

Bcl-2 = assay: RT-PCR, Bcl-2 mRNA in Hep3B cells; assay type: cell-based, human; conditions: 21.3 µM, 72 h, vs non-treated control
Method: as §3

PC3 cells = assay: Cell cycle analysis by flow cytometry, PC3; assay type: cell-based, human; conditions: PC3, treatment at IC50, 72 h; control 0.9%
Method: as §5

U937 cells = conditions: cited from earlier work
[6] = tested on: TPA-induced acute edema in mice ear; assay: TPA-induced ear edema in mice; assay type: in vivo; conditions: 1 mg/ear topical, male ICR mice, 6 h after TPA
Method: Edema in mice ear was induced with TPA purchased from Sigma Aldrich (St. Louis, MO, USA), following the method previously described. All animals were treated in accordance with Official Mexican Rule of Technical Specifications for the Production, Care and Use of Laboratory Animals (NOM-062-ZOO-1999 Guidelines) and international ethical guidelines for the care and use of experimental animals. The experimental protocol was authorized by the local Health Research Committee (Instituto Mexicano del Seguro Social (IMSS)). The experiments were carried out with male ICR mice weighing between 25–30 g (five animals per treatment). […] The treatments were applied topically on right ear and vehicle on left ear, thereafter, the edema was induced by administration topically of TPA (2.5 µg) over both ears. Six hours after administration of TPA, the animals were sacrificed by cervical dislocation. Circular sections 6 mm in diameter were taken from both the treated and non-treated ears and weighed to determine the inflammation.

[7] = tested on: pro-inflammatory cytokines; set-up: method as in PMID 27921103; conditions: 40 µM; via heme oxygenase-1 induction; cited from earlier work
[8] = 6 µM, mediated by caspase-3-like (CPP32-like) activation

## CC(C)=CCC/C(C)=C/CC/C(C)=C/CC/C(C)=C/C[C@@H](O)/C=C(\C)CC/C=C(\C)CC/C=C(\C)CCC=C(C)C [Compound 1, (6E,10E,14E,18E,22E,26E)-2,6,10,14,19,23,27,31-octamethyldotriaconta-2,6,10,14,18,22,26,30-octaen-16R-ol]
HeLa
  IC50: 37.3 ± 3.5 µM
Hep3B cells [1]
  percentage of early phase apoptosis cells: 22.6%
[2]
  IC50: 88.8 ± 8.9 µM
Caspase 3/7
  caspase 3/7 activation: statistically significant increase in caspase 3/7 activation
Bax
  Bax transcripts: increased Bax transcripts
  Bax/Bcl-2 ratio: increasing the Bax/Bcl-2 ratio
HepG2
  IC50: 26.6 ± 3.5 µM
PC3
  IC50: 32 ± 4.4 µM
RAW 264.7 cells
  effect on cell viability of RAW 264.7 cells: decreased the cell viability
Hep3B cells [3]
  population in sub-G1 phase: 18.5%
[4]; Mus musculus, RAW264.7, 14.4 µg/mL (25.6 µM)
  inhibition at 25.6 µM: 28.6 ± 1.81%
Hep3B
  IC50: 21.3 ± 3.5 µM
Hep3B cells [5]
  morphological changes (AO/EB fluorescence microscopy): apoptotic bodies formation and clear condensation of chromatin
HepG2 cells
  population in sub-G1 phase: 14.8%
Bcl-2
  Bcl-2 transcripts: inhibition of Bcl-2
PC3 cells
  population in sub-G1 phase: 19.0%

## CC(C)=CCC/C(C)=C/CC/C(C)=C/CC/C(C)=C/CC/C(C)=C\CC/C(C)=C\CC/C(C)=C\CC/C(C)=C\CC/C(C)=C\CC/C(C)=C\CC/C(C)=C\CC/C(C)=C\CO [Compound 2, (Z8,E3,ω)-dodecaprenol]
HeLa
  IC50: 95.7 ± 12 µM
[2]
  IC50: 76.6 ± 6 µM
HepG2
  IC50: 76.6 ± 6 µM
PC3
  IC50: 74.2 ± 5 µM
[4]
  inhibitory activity on NO production: negligible inhibitory activity
Hep3B
  IC50: 50.3 ± 5.9 µM

## CC(C)=CCC/C(C)=C/CC/C(C)=C/CC/C(C)=C/CC/C(C)=C\CC/C(C)=C\CC/C(C)=C\CC/C(C)=C\CC/C(C)=C\CC/C(C)=C\CC/C(C)=C\CC/C(C)=C\CC/C(C)=C\CO [Compound 3, (Z9,E3,ω)-tridecaprenol]
HeLa
  IC50: 84.1 ± 8.9 µM
[2]
  IC50: 74.1 ± 5.5 µM
HepG2
  IC50: 74.2 ± 5.5 µM
PC3
  IC50: 76.4 ± 6.6 µM
[4]
  inhibitory activity on NO production: negligible inhibitory activity
Hep3B
  IC50: 69.7 ± 5.5 µM

## CC(=O)O[C@H]1C(=O)[C@@]2(C)[C@H]([C@H](OC(=O)c3ccccc3)[C@]3(O)C[C@H](OC(=O)[C@H](O)[C@@H](NC(=O)c4ccccc4)c4ccccc4)C(C)=C1C3(C)C)[C@]1(OC(C)=O)CO[C@@H]1C[C@@H]2O [Paclitaxel, reference compound]
HeLa
  IC50: 0.01 ± 0.002 µM
[2]
  IC50: 0.08 ± 0.005 µM
HepG2
  IC50: 0.0065 ± 0.0007 µM
PC3
  IC50: 0.0154 ± 0.0035 µM
Hep3B
  IC50: 0.008 ± 0.001 µM

## CC(C)=CCC/C(C)=C/CC/C(C)=C/CC/C(C)=C/CC/C(C)=C/CC/C(C)=C/CC/C(C)=C/CC/C(C)=C\CC/C(C)=C/CCC(C)CCOP(=O)(O)O (stereo not drawn) [dihydrodecaprenyl phosphates, dihydrodecaprenyl phosphate]
U937 cells; [8]
  apoptosis in U937 cells: induced apoptosis

## COc1ccc2c(c1)c(CC(=O)O)c(C)n2C(=O)c1ccc(Cl)cc1 [indomethacin, reference compound]
[6]
  edema inhibition: 87.6 ± 0.4%
[4]; Mus musculus, RAW264.7, 30 µg/mL
  inhibition at 30 µg/mL: 54.6 ± 8.9%

## CC(C)=CCC/C(C)=C/CC/C(C)=C/CC/C(C)=C/CC/C(C)=C/CC/C(C)=C/CC/C(C)=C/CC/C(C)=C/CC/C(C)=C/CO [solanesol]
[7]
  production of pro-inflammatory cytokines: suppresses the production of pro-inflammatory cytokines

## Dihydroheptaprenyl phosphate
U937 cells; [8]
  apoptosis in U937 cells: induced apoptosis

## Dolichyl phosphate
U937 cells; 8 µg/mL, by the MAP kinase cascade
  apoptosis in U937 cells: induced apoptosis
